Measured values taken from patent publication US11591297B2, “Compound having PD-L1 expression-suppressing action” (TOHOKU UNIVERSITY, priority 2019, dated 2023).

System: PD-L1
Experiment: Inhibitory effect of PD-L1 expression by cell staining with anti-PD-L1 antibody in IFN-γ-treated THP-1 cells (flow cytometry)
Assay type: cell-based
Settings: Homo sapiens, IFN-γ 25 ng/mL, 24±2 hours, subMFI anti-CD274-PC7, read-out: IC50 (50% PD-L1 expression inhibition concentration)
Method: The inhibitory effects of each compound of Examples 1 to 6 on the PD-L1 expression were evaluated according to the following procedures.
(1) Acute monocytic leukemia cell-derived THP-1 cells were suspended in RPMI medium containing 10% FCS and 1% P/S (hereinafter, referred to as “RPMI medium”) at 5×10^5 cells/mL to obtain a cell suspension, and the cell suspension was dispensed into each well of a 6 well-plate in an amount of 3 mL. In order to activate the THP-1 cells and express PD-L1 in the cells, IFN-γ (PEPROTECH, Cat. No. 300-02-100UG, >2e+7 U/mg) was added into each well at a concentration of 25 ng/mL (>500 U/mL). 50 mmol/L of the test compound solution was diluted with the medium (usually, in the range of 0.025 mmol/L to 1 mmol/L), and the diluted solution was added into each well in an amount of 60 μL. The plate was incubated in a CO2 incubator (at 37° C. and 5% CO2) for 24±2 hours. In the control group, only DMSO was added in place of the test compound. (2) A part of the prepared cell culture liquid was collected and the number of cells therein was counted using a cell counter (BIORAD TC-20). The cell culture liquid was centrifuged at 300×g for 5 minutes and the supernatant of the cell culture liquid was removed. The cells were suspended in calcium and magnesium free phosphate buffered saline (PBS−) containing 1% bovine serum albumin (BSA) at a cell concentration of 1 to 2×10^7 cells/mL to prepare a cell suspension. (3) Each cell suspension prepared in the above step (2) were added into a 5 mL tube in an amount of 25 μL. 2 μL of 2% normal mouse serum/PBS− was added into tubes, and the tubes were gently pipetted. The tubes were then allowed to stand at room temperature for 15 minutes. (4) Anti-CD274-PC7 antibody (BECKMAN COULTER, Cat. No. A78884) or mouse IgG1-PC7 antibody (BECKMAN COULTER, 737662) as control was added in each tube in an amount of 10 μL, and the tubes were gently stirred. The tubes were then allowed to stand in the dark on an ice bath for 30 minutes. (5) Foxp3/Transcription Factor Fix/Perm Concentrate (4×) (Cat. No. TNB-1020-L050) (A solution) supplied in FOXP3/Transcription Factor Staining kit (TONBO biosciences) was diluted in Foxp3/Transcription Factor Fix/Perm Diluent (1×) (Cat. No. TNB-1022-L160) (A dilution solution) to prepare a 1×A solution. (6) The 1×A solution was added into each tube in an amount of 1 mL, and the tubes were gently pipetted and stirred. The tubes were then allowed to stand in the dark at room temperature for 30 minutes and centrifuged at 300×g for 5 minutes, and then the supernatants therein were removed. (7) 2 mL of 1% BSA/PBS− was added into each tube and the tubes were gently stirred and centrifuged at 300×g for 5 minutes, and then the supernatants therein were removed. (8) The cells therein were suspended in 0.5 mL of 1% BSA/PBS- and measured with a flow cytometer (Sony: Cell Sorter SH800) within 2 hours. The results were analyzed with a software, FlowJo (Tree Star Inc.). The mean peak fluorescence intensity (MFI) of PD-L1 and mean peak fluorescence intensity of IgG1 were calculated from histograms of the measured fluorescence intensity and number of cells, and the mean fluorescence intensity of IgG1 was subtracted from that of PD-L1 to calculate the subMFI. The experiments were performed in n=2.
The subMFI values of the control cells calculated by the FlowJo analysis and the cells cultured with the addition of the test compounds at each concentration (test cells) were input into an Excel file, and the percentages of the subMFI values of the test cells at each concentration to the average subMFI value of control cells were calculated. The regression line was determined from the percentages of the subMFI values of the test cells at each concentration by the method of least squares to calculate the 50% PD-L1 expression inhibition concentration (IC50 value) of each compound.

IC50 | SMILES
1.2 µM | O=C(Nc1ccc(Oc2ccc(C(F)(F)F)cc2)cc1)C1CCCN(C(=O)c2ccc([N+](=O)[O-])cc2)C1 (stereo not shown) [Example 2, 1-(4-Nitrobenzoyl)-N-(4-(4-(trifluoromethyl)phenoxy)phenyl) piperidine-3-carboxamide]
0.93 µM | COc1cc(C(=O)N2CCCC(C(=O)Nc3ccc(Oc4ccc(C(F)(F)F)cc4)cc3)C2)ccc1O (stereo not shown) [Example 3, 1-(4-Hydroxy-3-methoxybenzoyl)-N-(4-(4-(trifluoromethyl)phenoxy)phenyl)piperidine-3-carboxamide]
0.67 µM | O=C(Nc1ccc(Oc2ccc(S(F)(F)(F)(F)F)cc2)cc1)C1CCCN(C(=O)c2ccc([N+](=O)[O-])cc2)C1 (stereo not shown) [Example 5, 1-(4-Nitrobenzoyl)-N-(4-(4-(pentafluorosulfanyl)phenoxy)phenyl)piperidine-3-carboxamide]
0.83 µM | COc1cc(C(=O)N2CCCC(C(=O)Nc3ccc(Oc4ccc(S(F)(F)(F)(F)F)cc4)cc3)C2)ccc1O (stereo not shown) [Example 6, 1-(4-Hydroxy-3-methoxybenzoyl)-N-(4-(4-(pentafluorosulfanyl)phenoxy)phenyl)piperidine-3-carboxamide]
